Assay results taken from US10391095B2, “DNA-PK inhibitors” (Vertex Pharmaceuticals Incorporated, priority 2012, dated 2019).
pKi: −log10 of the molar value.

target: DNA-PK (Homo sapiens, UniProt P78527); experiment: DNA-PK inhibition assay (radiometric, 33P-ATP); format: biochemical; details: 100 μM ATP, competitive tight-binding fit
Protocol: Compounds were screened for their ability to inhibit DNA-PK kinase using a standard radiometric assay. Briefly, in this kinase assay the transfer of the terminal ^33P-phosphate in ^33P-ATP to a peptide substrate is interrogated. The assay was carried out in 384-well plates to a final volume of 50 μL per well containing approximately 6 nM DNA-PK, 50 mM HEPES (pH 7.5), 10 mM MgCl2, 25 mM NaCl, 0.01% BSA, 1 mM DTT, 10 μg/mL sheared double-stranded DNA (obtained from Sigma), 0.8 mg/mL DNA-PK peptide ([…] obtained from American Peptide), and 100 μM ATP. Accordingly, compounds of the invention were dissolved in DMSO to make 10 mM initial stock solutions. Serial dilutions in DMSO were then made to obtain the final solutions for the assay. A 0.75 μL aliquot of DMSO or inhibitor in DMSO was added to each well, followed by the addition of ATP substrate solution containing ^33P-ATP (obtained from Perkin Elmer). The reaction was started by the addition of DNA-PK, peptide and ds-DNA. After 45 min, the reaction was quenched with 25 μL of 5% phosphoric acid. The reaction mixture was transferred to MultiScreen HTS 384-well PH plates (obtained from Millipore), allowed to bind for one hour, and washed three times with 1% phosphoric acid. Following the addition of 50 μL of Ultima Gold™ high efficiency scintillant (obtained from Perkin Elmer), the samples were counted in a Packard TopCount NXT Microplate Scintillation and Luminescence Counter (Packard BioScience). The Ki values were calculated using Microsoft Excel Solver macros to fit the data to the kinetic model for competitive tight-binding inhibition.

| pKi | Compound |
| --- | --- |
| > 7.52 | COc1ccccc1[C@H](C)CNc1cc(-c2ccc(Nc3nn[nH]n3)nc2)ncn1 [Compound 203] |
| > 7.52 | COc1ccccc1CCNc1cc(-c2cnc3c(ccn3CC3CCOCC3)c2)ncn1 [Compound 41] |
| > 7.52 | CNC(=O)c1ccc(C(C)CNc2cc(-c3ccc(OC4COC4)nc3)ncn2)c(OC)c1 (stereo not drawn) [Compound 307] |
| > 7.52 | COc1ccccc1[C@H](C)CNc1cc(-c2ccc3ncccc3c2)ncn1 [Compound 80] |
| > 7.52 | CCOc1cc(-c2cc(NC[C@@H](C)c3cccc4c(C(=O)NC)ccnc34)ncn2)cnc1C [Compound 875] |
| > 7.52 | CNC(=O)c1ccnc2c([C@H](C)CNc3cc(-c4cnc(OC)c(CO)c4)ncn3)cccc12 [Compound 882] |
| > 7.52 | COCCn1ccc2cc(-c3cc(NCCc4ccccc4OC)ncn3)cnc21 [Compound 38] |
| > 7.52 | COc1cc(C(=O)Nc2ccccc2)ccc1C(C)CNc1cc(-c2ccc(C)nc2)ncn1 (stereo not drawn) [Compound 377] |
| > 7.52 | CNC(=O)c1ccnc2c([C@H](C)CNc3cc(-c4cnc(OC)c(COC)c4)ncn3)cccc12 [Compound 944] |
| > 7.52 | CNC(=O)c1ccnc2c([C@H](C)CNc3cc(-c4ccc(Nc5cnn(CCOC)c5)nc4)ncn3)cccc12 [Compound 737] |
| > 7.52 | Cc1ccc(-c2cc(NC[C@@H](C)c3cccc4c(CO)ccnc34)ncn2)cn1 [Compound 568] |
| > 7.52 | CNC(=O)c1ccc([C@H](C)CNc2cc(-c3ccc(NC(C)CO)nc3)ncn2)c(OC)c1 (single isomer, unassigned) [Compound 357] |
| > 7.52 | CNC(=O)c1ccc(C(C)CNc2cc(-c3cnc4c(cnn4C)c3)ncn2)c(OC)c1 (stereo not drawn) [Compound 188] |

More lines, now with the values behind:

| Compound | pKi |
| --- | --- |
| CNC(=O)c1c(F)cnc2c([C@H](C)CNc3cc(-c4cccs4)ncn3)cccc12 [Compound 689] | > 7.52 |
| CCOc1ncc(-c2cc(NC[C@@H](C)c3cccc4c(C(=O)NC)ccnc34)ncn2)cc1C [Compound 950] | > 7.52 |
| CNC(=O)c1ccnc2c([C@H](C)CNc3cc(-c4ccc(C(=O)NC5CC5)cc4)ncn3)cccc12 [Compound 752] | > 7.52 |
| CNC(=O)c1ccnc2c([C@H](C)CNc3cc(-c4cnc(N5CCOCC5)c(C)c4)ncn3)cccc12 [Compound 880] | > 7.52 |
| CNC(=O)c1ccnc2c([C@H](C)CNc3cc(-c4ccc5c(c4)CN(C(=O)COC)CC5)ncn3)cccc12 [Compound 834] | > 7.52 |
| CNC(=O)c1ccc([C@H](C)CNc2cc(-c3ccc(NC4CCOC4)nc3)ncn2)c(OC)c1 (single isomer, unassigned) [Compound 391] | > 7.52 |
| CNC(=O)c1c(NC)cnc2c([C@H](C)CNc3cc(-c4ccc(C)nc4)ncn3)cccc12 [Compound 764] | > 7.52 |
| C[C@H](CNc1cc(-c2cc(C(F)(F)F)c3ncccc3c2)ncn1)c1ccnc2c1OCCO2 [Compound 557] | > 7.52 |
| CNC(=O)c1c(F)cnc2c([C@H](C)CNc3cc(-c4ccc(F)nc4)ncn3)cccc12 [Compound 899] | > 7.52 |
| CNC(=O)c1ccnc2c([C@H](C)CNc3cc(-c4ccc(C(=O)OC)s4)ncn3)cccc12 [Compound 774] | > 7.52 |
| CC(CNc1cc(-c2ccc(N3CCN(C)CC3)nc2)ncn1)c1cccc2cccnc12 (stereo not drawn) [Compound 236] | > 7.52 |
| CNc1ncc(-c2cc(NC[C@@H](C)c3ccnc4c3OCC4)ncn2)cn1 [Compound 430] | > 7.52 |
| CNC(=O)c1ccnc2c([C@H](C)CNc3cc(-c4cnc(NC(C)C)nc4)ncn3)cccc12 [Compound 618] | > 7.52 |
| CNC(=O)c1ccnc2c([C@H](C)CNc3cc(-c4cnc(SC)nc4)ncn3)cccc12 [Compound 800] | > 7.52 |
| CNC(=O)c1ccnc2c([C@H](C)CNc3cc(-c4ccc5c(c4)CCN(C(=O)COC)C5)ncn3)cccc12 [Compound 835] | > 7.52 |
| CNC(=O)c1ccnc2c([C@H](C)CNc3cc(-c4ccc(OCC5CC5)nc4)ncn3)cccc12 [Compound 891] | > 7.52 |
| CNC(=O)c1ccnc2c([C@H](C)CNc3cc(-c4cnc(NC)nc4)ncn3)cccc12 [Compound 579] | > 7.52 |
